The values below come from publication PMC8779140 (Pharmaceutics, 2022).

One series concerns the target T1, human TMPRSS2 (Homo sapiens, UniProt O15393).
T1 construct: the purified MBP-tagged TMPRSS2 (residues 256-492) activity; made in house; host or cells: E. coli BL21 (DE3)
The experiment in a line: Inhibition assay of human TMPRSS2 (fluorogenic peptide). The format is biochemical. Here is the method: Cloning of TMPRSS2 was performed as previously reported. The synthetic gene encoding the catalytic domain of human TMPRSS2 (residues 256–492) was cloned into the pMAL-c5X vector (New England Biolabs). This plasmid was transformed into E. coli BL21 (DE3) for protein overexpression. Overnight culture of a single transformant (5 mL) was added to 500 mL of fresh LB medium containing […] ampicillin. The cells were grown to an OD600 of 0.6 and added with 1 mM isopropyl-β-thiogalactopyranoside for further 20 h incubation at 16 °C for recombinant protein production. The cells were harvested by centrifugation at 7000× g for 15 min.
Purification of the maltose-binding protein (MBP)-tagged TMPRSS2 was conducted at 4 °C. The cell paste obtained from the cell culture (1 L) was suspended in a lysis buffer (40 mL) containing 25 mM Tris-HCl (pH 7.5) and 150 mM NaCl. To disrupt the cells, a French press was used. The cell-free extract was loaded onto a 10 mL amylose resin column (New England Biolabs, Ipswich, MA, USA) equilibrated with the lysis buffer. The column was washed with 10 column volumes of lysis buffer, and then the MBP-tagged TMPRSS2 bound to the amylose resin was eluted with the elution buffer (25 mM Tris, pH 7.5, 150 mM NaCl, and 10 mM maltose).
For assaying the inhibition of the purified MBP-tagged TMPRSS2 (residues 256-492) activity, a fluorogenic peptide substrate, Boc-Gln-Ala-Arg-AMC, was used with excitation at 355 nm and emission at 460 nm. The enzyme (0.22 μM) was preincubated in the presence or absence of various concentrations of inhibitors in 20 mM HEPES and pH 7.5 assay buffer for 10 min in black 96-well immuno plates (Thermo Scientific). Next, the fluorescent substrate (10 μM) was added and incubated for 60 min at room temperature. The reactions were monitored by using a fluorescence plate reader (Fluoroskan Ascent, Thermo Labsystems, Franklin, MA, USA). The initial velocities of the inhibited reactions were plotted against the different inhibitor concentrations to yield the IC50 value by fitting with the equation A(I) = A(0) × {1 − [I/(I + IC50)]}. In this equation, A(I) is the enzyme activity with inhibitor concentration I, and A(0) is the enzyme activity without an inhibitor. For each data point, the measurements were repeated thrice to yield the mean and standard deviation.

Another series addresses T2, SARS-CoV-2 PL^pro (Severe acute respiratory syndrome coronavirus 2, UniProt P0DTD1).
T2 construct: The synthetic gene of SARS-CoV-2 PL^pro was cloned into the pET16b vector; made in house; host or cells: E. coli BL21(DE3)
Nature of the series: biochemical.

The next series concerns the target SARS-CoV-2 3CL^pro (Severe acute respiratory syndrome coronavirus 2, UniProt P0DTD1). Nature of the series: biochemical.
The subject of another series is SARS-CoV-2. The experiment in a line: Plaque reduction assay in Vero E6 cells. The conditions noted are these: 120 h. The format is cell-based.
The test system of series [1] is Vero E6 cells. Nature of the series: Cytotoxicity seen in the plaque reduction assay. The settings on record: Figure 7b, seen at 0.2 μM.
Series [2] deals with spike RBD–ACE2 interaction (wild-type) (Severe acute respiratory syndrome coronavirus 2, UniProt P0DTC2). In kind it is cell-based, SARS-CoV-2. The settings on record: RBD attachment assay.
Series [3] relates to Vero E6 cells.
For series [4] the following is noted: cited from earlier work.
Where [5] appears, read: 75 nM PL^pro, 10 μM z-Arg-Leu-Arg-Gly-Gly-AMC, pH 7.5, read-out: IC50.
The mark [6] stands for this setting: 0.22 μM MBP-tagged TMPRSS2 (residues 256-492), 10 μM Boc-Gln-Ala-Arg-AMC, read-out: IC50.

“Also recorded” adds a separate entry of the source. Where two headings read alike, the source gives them in different places. *1 amine or outer side, *2 acyl side, *3 side chain or, on linkers, in order; H or OH if unused. Where a SMILES comes first, the peptide text is derived from it. Bridges are numbered along the chain shown (N, C = ends). Roman numbers before positions name the chains, in order. [ ]: non-standard residue; d: D form. Actinocin(9to1) = Cc1c2oc3c(C)ccc(C(=O)[*:1])c3nc-2c(C(=O)[*:2])c(N)c1=O; NMeV = CN[C@H](C(=O)O)C(C)C; Sar = CNCC(=O)O

T1 sequence (O15393 256-492): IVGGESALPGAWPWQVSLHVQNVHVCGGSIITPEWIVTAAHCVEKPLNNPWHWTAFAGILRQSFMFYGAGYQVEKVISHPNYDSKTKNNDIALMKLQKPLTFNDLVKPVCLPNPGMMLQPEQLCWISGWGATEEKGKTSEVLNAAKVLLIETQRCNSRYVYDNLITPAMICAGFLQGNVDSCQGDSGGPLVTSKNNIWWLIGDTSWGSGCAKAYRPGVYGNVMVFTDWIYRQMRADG

Turning to `CN(C)C/C=C/C(=O)Nc1cc2c(Nc3ccc(F)c(Cl)c3)ncnc2cc1O[C@H]1CCOC1` [Afatinib], the figures for the IC50 at human TMPRSS2 and at SARS-CoV-2 PL^pro (setting [5]) were 28.4 ± 1.5 µM and 45.6 ± 4.2 µM, respectively.
With `Cc1c2oc3c(C)ccc(C(=O)N[C@@H]4C(=O)N[C@H](C(C)C)C(=O)N5CCC[C@H]5C(=O)N(C)CC(=O)N(C)[C@@H](C(C)C)C(=O)O[C@@H]4C)c3nc-2c(C(=O)N[C@@H]2C(=O)N[C@H](C(C)C)C(=O)N3CCC[C@H]3C(=O)N(C)CC(=O)N(C)[C@@H](C(C)C)C(=O)O[C@@H]2C)c(N)c1=O` [Dactinomycin] (I: T[dV]P[Sar][NMeV] / II: T[dV]P[Sar][NMeV]; ester I:1-I:C, II:1-II:C; linker I:N-II:N via Actinocin(9to1)), the IC50 is 37.6 ± 2.8 µM on SARS-CoV-2 3CL^pro (35 nM 3CL^pro, 6 μM fluorogenic substrate, pH 7.0, read-out: IC50) and 14.7 ± 2.6 µM at SARS-CoV-2 PL^pro (setting [5]).
Take `COc1cccc2c1C(=O)c1c(O)c3c(c(O)c1C2=O)C[C@@](O)(C(=O)CO)C[C@@H]3O[C@H]1C[C@H](N)[C@H](O)[C@H](C)O1` [Doxorubicin]: the IC50 on human TMPRSS2 (setting [6]) is 8.2 ± 1.6 µM; on SARS-CoV-2 PL^pro it was 4.6 ± 0.8 µM. Besides, the “antiviral activity in plaque reduction assay” value in the series with SARS-CoV-2 (10 μM) was “did not effectively inhibit the replication and infection of the virus”.
As for `CCN(CC)CCCC(C)Nc1c2ccc(Cl)cc2nc2ccc(OC)cc12` (centres unmarked) [Mepacrine], the IC50 on human TMPRSS2 (setting [6]) worked out at 29.9 ± 3.7 µM; on SARS-CoV-2 PL^pro, 4.4 ± 0.9 µM.
As for `CCOc1cc2ncc(C#N)c(Nc3ccc(OCc4ccccn4)c(Cl)c3)c2cc1NC(=O)/C=C/CN(C)C` [Neratinib], the IC50 at human TMPRSS2 (setting [6]) was 25.9 ± 3.2 µM; on SARS-CoV-2 PL^pro (setting [5]), 11.6 ± 2.9 µM.
Regarding `O=C(Nc1ccc([N+](=O)[O-])cc1Cl)c1cc(Cl)ccc1O` [Niclosamide], the values for the IC50 at SARS-CoV-2 3CL^pro and on SARS-CoV-2 PL^pro were 18.7 ± 0.9 µM and 16.6 ± 1.8 µM, respectively. The “antiviral activity in plaque reduction assay” value in the series with SARS-CoV-2 (0.2 μM) was “demonstrated antiviral property”. The cytotoxicity entry in the series with Vero E6 cells [1] is reported as “cells appeared broken into tiny particles, revealing the cytotoxicity; also recorded: high cytotoxicity”.
As for `CO[C@H]1C[C@@H]2CC[C@@H](C)[C@@](O)(O2)C(=O)C(=O)N2CCCC[C@H]2C(=O)O[C@H]([C@H](C)C[C@@H]2CC[C@@H](O)[C@H](OC)C2)CC(=O)[C@H](C)/C=C(\C)[C@@H](O)[C@@H](OC)C(=O)[C@H](C)C[C@H](C)/C=C/C=C/C=C/1C` [Rapamycin], on human TMPRSS2 (IC50 threshold 50 μM), the “inhibition of TMPRSS2 (in words)” value is listed as “did not inhibit”. Besides, the IC50 on SARS-CoV-2 PL^pro (setting [5]) was 31 ± 2.4 µM. Moreover, the “inhibition of RBD–ACE2 interplay (in words)” value in series [2] is “could not efficiently inhibit the interplay between the RBD and ACE2”. Also, the “antiviral activity in plaque reduction assay” value with SARS-CoV-2 (20 μM) is listed as “did not exert a significant effect on the inhibition of viral infection”.
At human TMPRSS2, `CC/C(=C(\c1ccccc1)c1ccc(OCCN(C)C)cc1)c1ccccc1` [Tamoxifen] gave an IC50 of 21.4 ± 1.6 µM. For the same compound, the “antiviral activity in plaque reduction assay” value in the series on SARS-CoV-2 (10 μM) was “robustly protected cells from the viral infection”. Also, in the series with Vero E6 cells [3], the cytotoxicity entry is “without apparent cytotoxicity”. Also, the half-life in series [4] was 120 to 170 h.
